# “Also recorded” adds a separate entry of the source.
# System: dual reporter MDA-MB-231 cells (MDA-MB-231 WT)
# Test: T cell killing in 3D tumor-fibroblast spheroids (Example 17)
# Format: cell-based, human
# Conditions: nivolumab 0.5 μg/mL; 3D spheroids, 3E:1T
# Text: Dual reporter MDA-MB-231 cell line with PD-L1 knockout (KO) (hereinafter referred to as “dual reporter MDA-MB-231 PD-L1 KO cells” or “MDA-MB-231 KO”) was constructed by co-transducing the Tet-on snLuc-GFP construct as constructed in Example 1 and CRISPR/Cas9 constructs targeting PD-L1. 3D tumor-fibroblast spheroids were generated by co-culturing 10,000 human dermal fibroblasts and 10,000 dual reporter MDA-MB-231 cells (“MDA-MB-231 WT”) or dual reporter MDA-MB-231 PD-L1 KO cells in ultra-low attachment plates for 3 days. After spheroid formation, 30,000 unstimulated primary T cells (3E:1T) were added in the presence of increasing concentrations of trispecific anti-HER2/anti-CD47/anti-CD3 antibody (serially diluted 5-fold, 1000 ng/mL-0.032 ng/mL), and without or with anti-PD-1 antibody nivolumab (0.5 μg/mL).
# The trispecific anti-HER2/anti-CD47/anti-CD3 antibody (made in house) has no Fc function due to LALA mutations and cannot mediate ADCC. The cell-killing reaction was incubated for 48 hours. […] Cell culture media was taken one day post-induction with doxycycline (t=72 hr), and luminescence was measured on a GloMax Discover Microplate Reader. Percent cell survival was defined as luminescence readout at various antibody concentrations relative to the average readout with no antibody. […]
substance,measurement,value
nivolumab,effect of nivolumab on trispecific antibody-mediated T cell killing,rescued T cell killing on dual reporter MDA-MB-231 cells; also recorded: could rescue the immunosuppression on cytotoxic T cells
